Consider eleven compounds from US8178530B2, “Imidazolopyrazine compounds useful for the treatment of degenerative and inflammatory diseases” (Janssen Pharmaceutica NV, priority 2006, dated 2012).

SMILES strings stand for the structures. A value given as a limit tells only on which side of the number the result lay.

The assay has as its system TNFα release by human PBMCs. Nature of the assay: Cytokine release by LPS-stimulated human PBMCs (TNFα ELISA). The settings on record: PBMC, LPS 1 μg/mL, 24 hr. It is filed as cell-based. The gist of the method: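 Human PBMCs at 2.5E6 cells/mL preincubated 1 h with compound (0.2% DMSO final), then stimulated with 1 μg/mL LPS (E. coli 026:B6) for 24 h. Supernatant TNFα measured by chemiluminescent sandwich ELISA; percent inhibition normalised to LPS/vehicle and unstimulated controls, EC50 fitted from 8-point 1/3 dilutions.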
The compound `C[C@@H]1CN(c2ccc(Nc3ncc(-c4csc(C(N)=O)c4)n4ccnc34)cc2)[C@@H](C)CN1C` [Compound 186] gave an EC50 of more than 1000 nM. The result for `c1cn(-c2ccc(Nc3ncc(-c4cn[nH]c4)n4ccnc34)cc2)cn1` [Compound 168, (4-Imidazol-1-yl-phenyl)-[5-(1H-pyrazol-4-yl)-imidazo[1,2-a]pyrazin-8-yl]-amine] reads more than 1000 nM; that for `Cc1cc(C(N)=O)ccc1-c1cnc(Nc2ccc(N3CCN(C)CC3)cc2)c2nccn12` [Compound 120], more than 1000 nM; that for `O=C(NCCN1CCOCC1)c1ccc(Nc2ncc(-c3cn[nH]c3)n3ccnc23)cc1` [Compound 53], more than 1000 nM. Compound `CS(=O)(=O)c1ccc(Nc2ncc(-c3cn[nH]c3)n3ccnc23)cc1` [Compound 71] returned an EC50 of more than 1000 nM.

Turning to `NC(=O)c1ccc(-c2cnc(Nc3ccc(N4CCN(CCO)CC4)cc3)c3nccn23)cc1` [Compound 156], the EC50 was more than 1000 nM. In turn, `CC(C)N1CCN(c2ccc(Nc3ncc(-c4ccc5c(c4)CNC5=O)n4ccnc34)cc2)CC1` [Compound 205, 5-{8-[4-(4-Isopropyl-piperazin-1-yl)-phenylamino]-imidazo[1,2-a]pyrazin-5-yl}-2,3-dihydro-isoindol-1-one] displayed an EC50 of more than 1000 nM. In the case of `CN1CCN(c2ccc(Nc3ncc(-c4cc(F)c(C(N)=O)c(F)c4)n4ccnc34)cc2)CC1` [Compound 140], the EC50 is more than 1000 nM. In turn, `CN(C)Cc1cc(Nc2ncc(-c3cn[nH]c3)n3ccnc23)ccc1N1CCOCC1` [Compound 218, (3-Dimethylaminomethyl-4-morpholin-4-yl-phenyl)-[5-(1H-pyrazol-4-yl)-imidazo[1,2-a]pyrazin-8-yl]-amine] yielded an EC50 of more than 1000 nM. On to `CN(C)Cc1cn(-c2ccc(Nc3ncc(-c4ccc(C(N)=O)cc4)n4ccnc34)cc2)nn1` [Compound 166, 4-{8-[4-(4-Dimethylaminomethyl-[1,2,3]triazol-1-yl)-phenylamino]-imidazo[1,2-a]pyrazin-5-yl}-benzamide], for which the EC50 is more than 1000 nM. Compound `CN1CCC(Oc2ccc(Nc3ncc(-c4ccc(C(N)=O)c(F)c4)n4ccnc34)cc2)CC1` [Compound 149] gave an EC50 of more than 1000 nM.

What is called EC50 is the concentration needed to bring the measured effect to its halfway point. Higher therefore signals lower potency in that assay.
